Test results as given in patent publication US9957264B2 (Merck Sharp & Dohme Corp., priority 2013, dated 2018).

Experiments:
[1] = molecular target: JAK2 (recombinant purified GST-tagged catalytic domain) (Homo sapiens (Human), UniProt O60674); assay: Jak Biochemical HTRF Assay (JAK2); settings: [ATP] 8.5 μM
Description: Jak Biochemical HTRF Assay Protocol
The ability of compounds to inhibit the activity of JAK1, JAK2, JAK3, and Tyk2 was measured using a recombinant purified GST-tagged catalytic domain for each enzyme (Invitrogen JAK1 #M4290, JAK2 #M4290, JAK3 #M4290, Tyk2 #M4290) in an HTRF format biochemical assay. […] The basic assay protocol is as follows: First, 250 nL of diluted compounds in DMSO were dispensed into the wells of a dry 384-well Black plate (Greiner #781076) using a Labcyte Echo 555 acoustic dispenser. Subsequent reagent additions employed an Agilent Bravo. […] After equilibration, 2 μL of 10×ATP in 1× assay buffer was added to initiate the kinase reaction and the plates were shaken and then incubated at room temperature for 120 minutes. […] Plates were shaken and centrifuged and then incubated 60 minutes at room temperature and then read on a Perkin Elmer Envision (λex=337 nm, λem=665 and 615 nm, TRF delay time=20 μs). HTRF signal=10,000*665 nm reading/615 nm reading. After normalization to untreated controls, the percent inhibition of the HTRF signal at each compound concentration was calculated. The plot of percent inhibition versus the log of compound concentration was fit with a 4-parameter dose response equation to calculate IC50 values.
Final reaction conditions were:
Examples of the instant invention were evaluated in JAK1 and JAK2 in vitro binding assays as described above.

[2] = molecular target: JAK1 (recombinant purified GST-tagged catalytic domain) (Homo sapiens (Human), UniProt P23458); assay: Jak Biochemical HTRF Assay (JAK1); settings: [ATP] 31.8 μM
How it was run: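 Under a 120 min room-temperature, ATP-initiated reaction, peptide phosphorylation was detected by Eu-pY20/streptavidin-Dylight 650 HTRF after EDTA stop. IC50 values derive from percent inhibition curves.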

JAK2 (recombinant purified GST-tagged catalytic domain), sequence (O60674 849-1124): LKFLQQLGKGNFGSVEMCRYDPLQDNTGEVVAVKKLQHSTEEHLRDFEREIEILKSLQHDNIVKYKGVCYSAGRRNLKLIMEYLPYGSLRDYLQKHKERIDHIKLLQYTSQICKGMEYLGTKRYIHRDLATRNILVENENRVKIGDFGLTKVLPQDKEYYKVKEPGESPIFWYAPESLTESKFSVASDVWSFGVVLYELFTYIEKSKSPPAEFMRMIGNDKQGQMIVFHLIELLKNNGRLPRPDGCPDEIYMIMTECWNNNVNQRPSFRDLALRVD
JAK1 (recombinant purified GST-tagged catalytic domain), sequence (P23458 875-1153): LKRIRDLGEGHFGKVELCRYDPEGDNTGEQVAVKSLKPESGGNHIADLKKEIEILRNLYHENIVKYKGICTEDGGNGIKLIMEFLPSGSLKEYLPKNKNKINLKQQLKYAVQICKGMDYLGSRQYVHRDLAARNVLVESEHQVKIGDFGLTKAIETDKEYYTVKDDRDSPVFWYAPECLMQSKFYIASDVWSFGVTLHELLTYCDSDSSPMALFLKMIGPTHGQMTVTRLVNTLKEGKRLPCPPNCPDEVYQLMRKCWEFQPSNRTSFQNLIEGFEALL

Row | SMILES | IC50 [1] [nM] | IC50 [2] [nM]
1 | N#CC[C@@]1(n2nc(Nc3ccc([C@@]4(C(F)(F)F)CCCCN4)cc3)c3c(=O)[nH]ccc32)CCOC[C@@H]1F (single isomer, unassigned) [Example 5-266, 2-((3R,4R or 3S,4S)-3-fluoro-4-(4-oxo-3-((4-((R or S)-2-(trifluoromethyl)piperidin-2-yl)phenyl)amino)-4,5-dihydro-1H-pyrazolo[4,3-c]pyridin-1-yl)tetrahydro-2H-pyran-4-yl)acetonitrile] | 0.04 | 0.05
2 | CC(C)(C)OC(=O)[C@@H]1CC[C@@](CC#N)(n2nc(Nc3ccc4c(c3)CN(CC(F)(F)F)S4(=O)=O)c3c(=O)[nH]ccc32)CO1 [Example 5-44, (2S,5S)-tert-butyl 5-(cyanomethyl)-5-(3-((1,1-dioxido-2-(2,2,2-trifluoroethyl)-2,3-dihydrobenzo[d]isothiazol-5-yl)amino)-4-oxo-4,5-dihydro-1H-pyrazolo[4,3-c]pyridin-1-yl)tetrahydro-2H-pyran-2-carboxylate] | 0.37 | 0.14
3 | CC(F)(F)C(=O)N1CCC(CC#N)(n2nc(Nc3ccc(S(C)(=O)=O)cc3)c3c(=O)[nH]ccc32)CC1 [Example 17, 2-(1-(2,2-difluoropropanoyl)-4-(3-((4-(methylsulfonyl)phenyl)amino)-4-oxo-4,5-dihydro-1H-pyrazolo[4,3-c]pyridin-1-yl)piperidin-4-yl)acetonitrile] | 0.24 | 0.1
4 | CC(C)(C)OC(=O)[C@@H]1CC[C@@](CC#N)(n2nc(Nc3ccc4c(c3)CN(C(C)(C)C)C4=O)c3c(=O)[nH]ccc32)CO1 [Example 5-100, (2S,5S)-tert-butyl 5-(3-((2-(tert-butyl)-1-oxoisoindolin-5-yl)amino)-4-oxo-4,5-dihydro-1H-pyrazolo[4,3-c]pyridin-1-yl)-5-(cyanomethyl)tetrahydro-2H-pyran-2-carboxylate] | 0.26 | 0.14
5 | CC(C)(C)OC(=O)N1CC[C@](CC#N)(n2nc(Nc3ccc4c(c3)CN(C(C)(C)C)S4(=O)=O)c3c(=O)[nH]ccc32)[C@H](F)C1 [Example 5-22, tert-butyl (3R,4R)-4-{3-[(2-tert-butyl-1,1-dioxido-2,3-dihydro-1,2-benzisothiazol-5-yl)amino]-4-oxo-4,5-dihydro-1H-pyrazolo [4,3-c]pyridin-1-yl}-4-(cyanomethyl)-3-fluoropiperidine-1-carboxylate] | 0.19 | 0.15
6 | CC(C)(C)OC(=O)[C@@H]1CC[C@@](CC#N)(n2nc(Nc3ccc(C(O)C(F)(F)F)cc3)c3c(=O)[nH]ccc32)CO1 (single isomer, unassigned) [Example 5-168, (2S,5S)-tert-butyl 5-(cyanomethyl)-5-(4-oxo-3-((4-((S or R)-2,2,2-trifluoro-1-hydroxyethyl)phenyl)amino)-4,5-dihydro-1H-pyrazolo [4,3-c]pyridin-1-yl)tetrahydro-2H-pyran-2-carboxylate] | 0.51 | 0.12
7 | CC(C)(C)OC(=O)[C@@H]1CC[C@@](CC#N)(n2nc(Nc3ccc4c(c3)CC(C)(C)C4(O)C(F)(F)F)c3c(=O)[nH]ccc32)CO1 (single isomer, unassigned) [Example 5-164, (2S,5S)-tert-butyl 5-(cyanomethyl)-5-(3-(((S or R)-1-hydroxy-2,2-dimethyl-1-(trifluoromethyl)-2,3-dihydro-1H-inden-5-yl)amino)-4-oxo-4,5-dihydro-1H-pyrazolo[4,3-c]pyridin-1-yl)tetrahydro-2H-pyran-2-carboxylate] | 0.68 | 0.59
8 | CC(C)(C)OC(=O)N1CC[C@@](CC#N)(n2nc(Nc3ccc(S(C)(=O)=O)cc3)c3c(=O)[nH]ccc32)[C@@H](F)C1 [Example 5-16, tert-butyl (3S,4S)-4-(cyanomethyl)-3-fluoro-4-(3-{[4-(methyl-sulfonyl)phenyl]amino}-4-oxo-4,5-dihydro-1H-pyrazolo[4,3-c]pyridin-1-yl)piperidine-1-carboxylate] | 0.35 | 0.12
9 | CC(C)(C)OC(=O)N1CCC(CC#N)(n2nc(Nc3ccc(C(F)(F)F)cc3)c3c(=O)[nH]ccc32)CC1 [Example 5-8, tert-butyl 4-(cyanomethyl)-4-(4-oxo-3-{[4-(trifluoromethyl)phenyl]amino}-4,5-dihydro-1H-pyrazolo [4,3-c]pyridin-1-yl) piperidine-1-carboxylate] | 20 | 1.96
10 | CN(C)S(=O)(=O)c1ccc(Nc2nn(C3(CC#N)CCN(Cc4ccc(-c5ccon5)cc4)CC3)c3cc[nH]c(=O)c23)cc1 [Example 8-13, 4-({1-[4-(cyanomethyl)-1-(4-isoxazol-3-ylbenzyl)piperidin-4-yl]-4-oxo-4,5-dihydro-1H-pyrazolo[4,3-c]pyridin-3-yl}amino)-N,N-dimethylbenzenesulfonamide] | 0.75 | 0.31
11 | CC(C)(C)OC(=O)[C@@H]1CC[C@@](CC#N)(n2nc(Nc3ccc4c(c3)CN(C3CCCCC3)C4=O)c3c(=O)[nH]ccc32)CO1 [Example 5-101, (2S,5S)-tert-butyl 5-(cyanomethyl)-5-(3-((2-cyclohexyl-1-oxoisoindolin-5-yl)amino)-4-oxo-4,5-dihydro-1H-pyrazolo[4,3-c]pyridin-1-yl)tetrahydro-2H-pyran-2-carboxylate] | 0.4 | 0.18
12 | CC(C)(C)OC(=O)N1CC[C@](CC#N)(n2nc(Nc3ccc4c(c3)CN(CC(F)(F)F)S4(=O)=O)c3c(=O)[nH]ccc32)[C@H](F)C1 [Example 5-24, tert-butyl (3R,4R)-4-(cyanomethyl)-4-(3-{[1,1-dioxido-2-(2,2,2-trifluoroethyl)-2,3-dihydro-1,2-benzisothiazol-5-yl]amino}-4-oxo-4,5-dihydro-1H-pyrazolo[4,3-c]pyridin-1-yl)-3-fluoropiperidine-1-carboxylate] | 0.25 | 0.2
13 | CC(C)(C)OC(=O)N1CCC(CC#N)(n2nc(Nc3ccc4c(c3)CN(CC(F)(F)F)C4=O)c3c(=O)[nH]ccc32)CC1 [Example 5-5, tert-butyl 4-(cyanomethyl)-4-(4-oxo-3-{[1-oxo-2-(2,2,2-trifluoroethyl)-2,3-dihydro-1H-isoindol-5-yl]amino}-4,5-dihydro-1H-pyrazolo[4,3-c]pyridin-1-yl)piperidine-1-carboxylate] | 0.31 | 0.28
14 | CC(C)(C)OC(=O)[C@@H]1CC[C@@](CC#N)(n2nc(Nc3ccc([C@H](N)C(F)(F)F)cc3)c3c(=O)[nH]ccc32)CO1 (single isomer, unassigned) [Example 5-53, (2S,5S)-tert-butyl 5-(3-((4-((S or R)-1-amino-2,2,2-trifluoroethyl)phenyl)amino)-4-oxo-4,5-dihydro-1H-pyrazolo[4,3-c]pyridin-1-yl)-5-(cyanomethyl) tetrahydro-2H-pyran-2-carboxylate] | 0.57 | 0.19

The next lines start with the values.

Row | IC50 [1] [nM] | IC50 [2] [nM] | SMILES
15 | 0.21 | 0.09 | CN(C)S(=O)(=O)c1ccc(Nc2nn(C3(CC#N)CCN(C(=O)CCC#N)CC3)c3cc[nH]c(=O)c23)cc1 [Example 9-22, 4-({1-[4-(cyanomethyl)-1-(3-cyanopropanoyl)piperidin-4-yl]-4-oxo-4,5-dihydro-1H-pyrazolo[4,3-c]pyridin-3-yl}amino)-N,N-dimethylbenzenesulfonamide]
16 | 1.78 | 1.37 | CN(C)S(=O)(=O)c1ccc(Nc2nn(C3(CC#N)CCC(=O)CC3)c3cc[nH]c(=O)c23)cc1 [Example 18-39, 4-((1-(1-(cyanomethyl)-4-oxocyclohexyl)-4-oxo-4,5-dihydro-1H-pyrazolo[4,3-c]pyridin-3-yl)amino)-N,N-dimethylbenzenesulfonamide]
17 | 64 | 6.8 | N#CCC1(n2nc(Nc3ccc(C(F)(F)F)cc3)c3c(=O)[nH]ccc32)CCC(N2CC(F)C2)CC1 (single isomer, unassigned) [Example 18-2, 2-(4-(3-fluoroazetidin-1-yl)-1-(4-oxo-3-((4-(trifluoromethyl)phenyl)amino)-4,5-dihydro-1H-pyrazolo[4,3-c]pyridin-1-yl)cyclohexyl)acetonitrile]
18 | 1.15 | 0.14 | CN(C)S(=O)(=O)c1ccc(Nc2nn(C3(CC#N)CCN(C(=O)CCC4CC4)CC3)c3cc[nH]c(=O)c23)cc1 [Example 9-11, 4-({1-[4-(cyanomethyl)-1-(3-cyclopropylpropanoyl)piperidin-4-yl]-4-oxo-4,5-dihydro-1H-pyrazolo[4,3-c]pyridin-3-yl}amino)-N,N-dimethylbenzenesulfonamide]
19 | 12.1 | 1.07 | CN1Cc2cc(Nc3nn([C@]4(CC#N)CC[C@@H](N(C)C)CC4)c4cc[nH]c(=O)c34)ccc2S1(=O)=O [Example 18-34, Trans 2-(4-(Dimethylamino)-1-(3-((2-methyl-1,1-dioxido-2,3-dihydrobenzo-[d]isothiazol-6-yl)amino)-4-oxo-4,5-dihydro-1H-pyrazolo[4,3-c]pyridin-1-yl)cyclohexyl)acetonitrile]
